Reference: BindingDB's records for doi:10.1021/jm030040o (Schering-Plough Research Institute, 2003)

Biological target: Genome polyprotein (Hepatitis C virus)
Experiment: Binding constant against hepatitis C virus (HCV) protease

Row | SMILES | Ki [nM]
1 | CC[C@H](C)[C@H](NC(=O)[C@H](CC(C)C)NC(=O)[C@@H](CCC(=O)O)NC(=O)[C@H](CC(=O)O)NC(C)=O)C(=O)N[C@@H](CC1CCCCC1)C(=O)N[C@@H](CCS)C(=O)O [2-[(S)-(S)-2-((R)-2-{(S)-2-[(R)-2-((S)-2-Acetylamino-3-carboxy-propionylamino)-4-(S)-carboxy-butyrylamino]-4-methyl-pentanoylamino}-3-methyl-pentanoylamino)-3-cyclohexyl-propionylamino]-4-mercapto-butyric acid] | 80000
2 | CC[C@H](NC(=O)[C@H](CC1CCCCC1)NC(=O)[C@@H](NC(=O)[C@H](CC(C)C)NC(=O)[C@@H](CCC(=O)O)NC(=O)[C@H](CC(=O)O)NC(C)=O)[C@@H](C)CC)C(=O)O [2-[(S)-(S)-2-((R)-2-{(S)-2-[(R)-2-((S)-2-Acetylamino-3-carboxy-propionylamino)-4-(S)-carboxy-butyrylamino]-4-methyl-pentanoylamino}-3-methyl-pentanoylamino)-3-cyclohexyl-propionylamino]-butyric acid] | 600
3 | CCCC[C@H](NC(=O)[C@H](CC1CCCCC1)NC(=O)[C@@H](NC(=O)[C@H](CC(C)C)NC(=O)[C@@H](CCC(=O)O)NC(=O)[C@H](CC(=O)O)NC(C)=O)[C@@H](C)CC)C(=O)O [2-[(S)-(S)-2-((R)-2-{(S)-2-[(R)-2-((S)-2-Acetylamino-3-carboxy-propionylamino)-4-(S)-carboxy-butyrylamino]-4-methyl-pentanoylamino}-3-methyl-pentanoylamino)-3-cyclohexyl-propionylamino]-hexanoic acid] | 2000
4 | CCC[C@H](NC(=O)[C@H](CC1CCCCC1)NC(=O)[C@@H](NC(=O)[C@H](CC(C)C)NC(=O)[C@@H](CCC(=O)O)NC(=O)[C@H](CC(=O)O)NC(C)=O)[C@@H](C)CC)C(=O)O [(S)-2-[(S)-2-((R)-2-{(S)-2-[(R)-2-((S)-2-Acetylamino-3-carboxy-propionylamino)-4-(S)-carboxy-butyrylamino]-4-methyl-pentanoylamino}-3-methyl-pentanoylamino)-3-cyclohexyl-propionylamino]-pentanoic acid] | 130
5 | CCSC[C@H](NC(=O)[C@H](CC1CCCCC1)NC(=O)[C@@H](NC(=O)[C@H](CC(C)C)NC(=O)[C@@H](CCC(=O)O)NC(=O)[C@H](CC(=O)O)NC(C)=O)[C@@H](C)CC)C(=O)O [(S)-4-((S)-2-Acetylamino-3-carboxy-propionylamino)-4-((R)-(S)-1-{1-[(R)-(R)-1-((S)-1-carboxy-2-ethylsulfanyl-ethylcarbamoyl)-2-cyclohexyl-ethylcarbamoyl]-2-methyl-butylcarbamoyl}-3-methyl-butylcarbamoyl)-butyric acid] | 5000
6 | CC[C@H](C)[C@H](NC(=O)[C@H](CC(C)C)NC(=O)[C@@H](CCC(=O)O)NC(=O)[C@H](CC(=O)O)NC(C)=O)C(=O)N[C@@H](CC1CCCCC1)C(=O)N[C@@H](CS)C(=O)O [(S)-4-((S)-2-Acetylamino-3-carboxy-propionylamino)-4-((R)-(S)-1-{1-[(R)-(R)-1-((S)-1-carboxy-2-mercapto-ethylcarbamoyl)-2-cyclohexyl-ethylcarbamoyl]-2-methyl-butylcarbamoyl}-3-methyl-butylcarbamoyl)-butyric acid] | 120
7 | CC[C@H](C)[C@H](NC(=O)[C@H](CC(C)C)NC(=O)[C@@H](CCC(=O)O)NC(=O)[C@H](CC(=O)O)NC(C)=O)C(=O)N[C@@H](CC1CCCCC1)C(=O)N[C@@H](CSC)C(=O)O [(S)-4-((S)-2-Acetylamino-3-carboxy-propionylamino)-4-((R)-(S)-1-{1-[(R)-(R)-1-((S)-1-carboxy-2-methylsulfanyl-ethylcarbamoyl)-2-cyclohexyl-ethylcarbamoyl]-2-methyl-butylcarbamoyl}-3-methyl-butylcarbamoyl)-butyric acid] | 500
